Legend:
[1] = molecular target: Alpha-1D adrenergic receptor (Homo sapiens) (UniProt P25100); conditions: Compound concentration 10.0 uM
[2] = molecular target: Casein kinase I isoform gamma-3 (Homo sapiens) (UniProt Q9Y6M4); conditions: Compound concentration 1.0 uM
[3] = molecular target: Tyrosine-protein kinase Yes (Homo sapiens) (UniProt P07947); conditions: Compound concentration 1.0 uM
[4] = molecular target: ALK tyrosine kinase receptor (Homo sapiens) (UniProt Q9UM73); conditions: Compound concentration 1.0 uM
[5] = molecular target: T1, MAP kinase-activated protein kinase 5 (Homo sapiens) (UniProt Q8IW41); conditions: Compound concentration 1.0 uM
T1 sequence (whole entry): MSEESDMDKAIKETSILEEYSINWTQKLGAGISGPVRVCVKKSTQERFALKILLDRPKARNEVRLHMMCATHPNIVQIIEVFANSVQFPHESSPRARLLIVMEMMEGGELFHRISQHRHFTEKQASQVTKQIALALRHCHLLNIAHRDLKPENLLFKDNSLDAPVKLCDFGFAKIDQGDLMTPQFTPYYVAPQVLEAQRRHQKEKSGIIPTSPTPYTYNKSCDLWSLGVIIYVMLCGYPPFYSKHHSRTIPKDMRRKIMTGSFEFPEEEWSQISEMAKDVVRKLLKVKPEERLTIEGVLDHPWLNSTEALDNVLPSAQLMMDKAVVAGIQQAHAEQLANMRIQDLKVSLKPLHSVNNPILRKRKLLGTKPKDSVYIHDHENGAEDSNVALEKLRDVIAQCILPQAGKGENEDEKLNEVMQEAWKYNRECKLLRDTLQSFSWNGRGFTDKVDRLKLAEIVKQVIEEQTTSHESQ

[6] = molecular target: Serine/threonine-protein kinase 33 (Homo sapiens) (UniProt Q9BYT3); conditions: Compound concentration 1.0 uM
[7] = molecular target: Serine/threonine-protein kinase Nek4 (Homo sapiens) (UniProt P51957); conditions: Compound concentration 1.0 uM
[8] = molecular target: Calcium/calmodulin-dependent protein kinase type II subunit delta (Homo sapiens) (UniProt Q13557); conditions: Compound concentration 1.0 uM
[9] = molecular target: Protein kinase C alpha type (Homo sapiens) (UniProt P17252); conditions: Compound concentration 1.0 uM
[10] = molecular target: Transient receptor potential cation channel subfamily M member 7 (Homo sapiens) (UniProt Q96QT4); conditions: Compound concentration 1.0 uM
[11] = molecular target: Serine/threonine-protein kinase 10 (Homo sapiens) (UniProt O94804); conditions: Compound concentration 1.0 uM
[12] = molecular target: Insulin receptor-related protein (Homo sapiens) (UniProt P14616); conditions: Compound concentration 1.0 uM
[13] = molecular target: T2, Serine/threonine-protein kinase D3 (Homo sapiens) (UniProt O94806); conditions: Compound concentration 1.0 uM
T2 sequence (whole entry): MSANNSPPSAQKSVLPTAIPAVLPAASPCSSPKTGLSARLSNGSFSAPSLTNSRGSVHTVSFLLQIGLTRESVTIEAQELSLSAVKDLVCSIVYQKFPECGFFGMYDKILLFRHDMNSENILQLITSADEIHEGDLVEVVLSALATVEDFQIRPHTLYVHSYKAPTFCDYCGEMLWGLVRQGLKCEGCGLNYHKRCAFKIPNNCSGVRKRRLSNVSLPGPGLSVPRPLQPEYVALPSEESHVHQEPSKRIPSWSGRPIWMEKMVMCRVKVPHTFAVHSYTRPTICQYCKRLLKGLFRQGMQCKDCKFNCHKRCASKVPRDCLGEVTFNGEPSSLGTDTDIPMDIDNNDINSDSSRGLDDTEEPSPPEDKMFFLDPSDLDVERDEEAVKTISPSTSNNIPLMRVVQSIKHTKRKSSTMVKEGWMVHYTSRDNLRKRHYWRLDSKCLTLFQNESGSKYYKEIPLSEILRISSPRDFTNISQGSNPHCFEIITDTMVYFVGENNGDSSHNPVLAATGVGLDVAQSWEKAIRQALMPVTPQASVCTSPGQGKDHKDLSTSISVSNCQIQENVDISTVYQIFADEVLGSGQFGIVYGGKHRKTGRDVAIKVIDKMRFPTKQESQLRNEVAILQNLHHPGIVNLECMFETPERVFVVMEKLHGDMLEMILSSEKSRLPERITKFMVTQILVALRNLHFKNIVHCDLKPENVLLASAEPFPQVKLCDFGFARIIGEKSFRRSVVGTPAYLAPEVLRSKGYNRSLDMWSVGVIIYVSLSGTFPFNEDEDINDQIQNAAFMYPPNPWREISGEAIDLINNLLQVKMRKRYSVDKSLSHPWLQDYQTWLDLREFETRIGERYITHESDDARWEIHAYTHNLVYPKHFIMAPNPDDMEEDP

Sequence of Transient receptor potential cation channel subfamily M member 7 (Homo sapiens) (Q96QT4 whole entry): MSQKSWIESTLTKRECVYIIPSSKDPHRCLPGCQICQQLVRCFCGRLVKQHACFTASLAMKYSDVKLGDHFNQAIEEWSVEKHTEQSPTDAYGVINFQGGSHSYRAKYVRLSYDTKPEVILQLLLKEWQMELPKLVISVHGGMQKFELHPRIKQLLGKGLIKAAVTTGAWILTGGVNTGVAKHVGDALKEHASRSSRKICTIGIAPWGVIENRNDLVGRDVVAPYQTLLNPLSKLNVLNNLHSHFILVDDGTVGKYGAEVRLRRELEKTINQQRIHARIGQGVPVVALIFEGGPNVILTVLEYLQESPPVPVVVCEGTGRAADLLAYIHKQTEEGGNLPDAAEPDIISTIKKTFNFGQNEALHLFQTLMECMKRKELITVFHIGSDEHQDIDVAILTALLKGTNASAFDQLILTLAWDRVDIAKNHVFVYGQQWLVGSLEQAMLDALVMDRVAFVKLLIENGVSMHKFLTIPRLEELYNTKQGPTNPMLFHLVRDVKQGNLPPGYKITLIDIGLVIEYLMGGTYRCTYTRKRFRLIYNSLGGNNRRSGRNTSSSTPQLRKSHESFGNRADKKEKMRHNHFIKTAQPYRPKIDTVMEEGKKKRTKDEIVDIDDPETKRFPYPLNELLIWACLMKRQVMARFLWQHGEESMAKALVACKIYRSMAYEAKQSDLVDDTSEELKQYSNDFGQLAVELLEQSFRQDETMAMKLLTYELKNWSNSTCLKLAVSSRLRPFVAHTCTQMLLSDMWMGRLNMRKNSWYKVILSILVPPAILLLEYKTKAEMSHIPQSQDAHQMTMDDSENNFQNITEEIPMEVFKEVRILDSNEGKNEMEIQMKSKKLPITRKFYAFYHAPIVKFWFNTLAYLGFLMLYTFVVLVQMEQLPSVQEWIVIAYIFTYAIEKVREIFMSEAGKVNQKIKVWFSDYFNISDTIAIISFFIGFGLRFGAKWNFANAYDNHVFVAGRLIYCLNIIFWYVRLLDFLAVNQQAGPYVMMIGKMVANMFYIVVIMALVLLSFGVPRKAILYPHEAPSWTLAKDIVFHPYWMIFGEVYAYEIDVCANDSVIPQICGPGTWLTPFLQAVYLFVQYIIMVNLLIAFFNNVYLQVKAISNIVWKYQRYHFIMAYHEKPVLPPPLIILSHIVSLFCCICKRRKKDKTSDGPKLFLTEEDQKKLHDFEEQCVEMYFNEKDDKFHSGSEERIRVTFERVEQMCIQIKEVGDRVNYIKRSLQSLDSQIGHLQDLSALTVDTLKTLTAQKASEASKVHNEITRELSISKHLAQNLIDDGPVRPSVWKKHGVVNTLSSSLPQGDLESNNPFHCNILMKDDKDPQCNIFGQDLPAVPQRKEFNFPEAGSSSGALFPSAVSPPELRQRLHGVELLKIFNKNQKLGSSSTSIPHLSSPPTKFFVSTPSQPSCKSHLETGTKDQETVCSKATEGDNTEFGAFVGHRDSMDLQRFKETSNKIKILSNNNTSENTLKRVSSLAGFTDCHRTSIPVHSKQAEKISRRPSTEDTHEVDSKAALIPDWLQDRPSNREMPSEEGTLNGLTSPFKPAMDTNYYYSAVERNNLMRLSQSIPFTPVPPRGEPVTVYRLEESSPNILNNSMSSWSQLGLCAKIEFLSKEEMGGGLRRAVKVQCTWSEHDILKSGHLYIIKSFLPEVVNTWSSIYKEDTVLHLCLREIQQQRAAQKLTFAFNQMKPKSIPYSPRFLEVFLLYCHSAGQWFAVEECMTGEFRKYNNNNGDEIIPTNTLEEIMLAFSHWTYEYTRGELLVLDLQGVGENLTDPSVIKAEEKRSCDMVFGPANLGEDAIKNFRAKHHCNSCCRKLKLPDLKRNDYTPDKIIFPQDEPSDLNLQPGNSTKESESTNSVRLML
Sequence of Insulin receptor-related protein (Homo sapiens) (P14616 27-742 limits assumed): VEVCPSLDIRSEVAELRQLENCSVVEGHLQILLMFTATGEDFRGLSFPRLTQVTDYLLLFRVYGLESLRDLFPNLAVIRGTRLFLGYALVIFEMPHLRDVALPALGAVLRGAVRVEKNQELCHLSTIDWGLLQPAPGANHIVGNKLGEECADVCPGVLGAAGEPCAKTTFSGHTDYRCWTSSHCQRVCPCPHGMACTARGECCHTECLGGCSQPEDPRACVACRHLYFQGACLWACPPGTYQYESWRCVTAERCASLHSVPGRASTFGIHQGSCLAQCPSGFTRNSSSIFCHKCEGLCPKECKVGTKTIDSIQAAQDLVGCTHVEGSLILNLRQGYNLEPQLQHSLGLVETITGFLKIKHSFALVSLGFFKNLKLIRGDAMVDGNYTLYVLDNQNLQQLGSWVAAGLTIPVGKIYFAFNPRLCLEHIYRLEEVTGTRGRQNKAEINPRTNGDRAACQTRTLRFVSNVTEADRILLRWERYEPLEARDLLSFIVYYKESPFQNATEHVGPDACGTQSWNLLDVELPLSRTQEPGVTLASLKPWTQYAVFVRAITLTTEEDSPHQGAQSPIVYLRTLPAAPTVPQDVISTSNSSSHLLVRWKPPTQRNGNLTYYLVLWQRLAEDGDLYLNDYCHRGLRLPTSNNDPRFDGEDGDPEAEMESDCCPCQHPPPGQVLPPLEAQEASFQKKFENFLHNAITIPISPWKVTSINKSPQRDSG
Sequence of Insulin receptor-related protein (Homo sapiens) (P14616 747-1297 limits assumed): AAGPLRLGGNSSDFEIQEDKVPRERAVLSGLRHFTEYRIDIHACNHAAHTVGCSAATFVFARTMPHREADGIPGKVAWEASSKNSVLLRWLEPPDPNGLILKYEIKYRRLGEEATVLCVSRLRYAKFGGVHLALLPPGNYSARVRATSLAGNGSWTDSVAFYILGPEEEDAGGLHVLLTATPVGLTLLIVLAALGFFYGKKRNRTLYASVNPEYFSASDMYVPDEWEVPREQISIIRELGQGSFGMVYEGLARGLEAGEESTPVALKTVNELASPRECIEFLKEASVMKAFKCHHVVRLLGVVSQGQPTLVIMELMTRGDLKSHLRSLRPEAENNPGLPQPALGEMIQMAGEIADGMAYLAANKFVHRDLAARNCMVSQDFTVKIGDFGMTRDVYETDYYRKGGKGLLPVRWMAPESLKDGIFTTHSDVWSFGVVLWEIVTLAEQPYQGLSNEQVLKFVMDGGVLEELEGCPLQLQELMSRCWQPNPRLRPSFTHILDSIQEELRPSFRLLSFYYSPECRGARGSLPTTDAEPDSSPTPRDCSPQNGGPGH
Sequence of Alpha-1D adrenergic receptor (Homo sapiens) (P25100 whole entry, canonical isoform): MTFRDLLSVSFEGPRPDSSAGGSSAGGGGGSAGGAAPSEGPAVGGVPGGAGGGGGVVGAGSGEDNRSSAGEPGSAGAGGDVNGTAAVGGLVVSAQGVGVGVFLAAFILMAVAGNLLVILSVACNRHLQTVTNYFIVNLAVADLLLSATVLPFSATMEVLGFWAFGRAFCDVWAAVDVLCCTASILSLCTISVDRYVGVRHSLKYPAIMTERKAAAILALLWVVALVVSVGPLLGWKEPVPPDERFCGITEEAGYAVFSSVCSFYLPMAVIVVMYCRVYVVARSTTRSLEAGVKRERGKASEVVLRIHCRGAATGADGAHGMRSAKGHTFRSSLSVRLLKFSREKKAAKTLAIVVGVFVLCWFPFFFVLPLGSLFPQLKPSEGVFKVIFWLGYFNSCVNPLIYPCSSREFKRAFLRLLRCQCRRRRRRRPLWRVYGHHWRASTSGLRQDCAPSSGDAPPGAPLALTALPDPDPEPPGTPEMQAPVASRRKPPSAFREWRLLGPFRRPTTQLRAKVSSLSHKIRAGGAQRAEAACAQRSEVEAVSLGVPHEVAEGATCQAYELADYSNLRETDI
Sequence of Calcium/calmodulin-dependent protein kinase type II subunit delta (Homo sapiens) (Q13557 whole entry): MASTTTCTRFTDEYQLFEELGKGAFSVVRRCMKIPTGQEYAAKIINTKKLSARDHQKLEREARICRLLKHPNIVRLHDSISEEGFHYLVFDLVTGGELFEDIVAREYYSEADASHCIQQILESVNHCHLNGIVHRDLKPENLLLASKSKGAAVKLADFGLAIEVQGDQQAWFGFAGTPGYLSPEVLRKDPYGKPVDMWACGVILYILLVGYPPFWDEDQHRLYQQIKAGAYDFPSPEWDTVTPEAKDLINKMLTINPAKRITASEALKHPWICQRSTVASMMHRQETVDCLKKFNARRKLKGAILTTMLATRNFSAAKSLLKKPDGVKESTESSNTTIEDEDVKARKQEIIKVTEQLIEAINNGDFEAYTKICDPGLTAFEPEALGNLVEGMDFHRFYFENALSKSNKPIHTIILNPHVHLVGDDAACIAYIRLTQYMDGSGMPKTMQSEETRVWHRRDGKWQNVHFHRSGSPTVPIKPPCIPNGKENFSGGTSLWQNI
Sequence of Casein kinase I isoform gamma-3 (Homo sapiens) (Q9Y6M4 whole entry, looked up, canonical isoform): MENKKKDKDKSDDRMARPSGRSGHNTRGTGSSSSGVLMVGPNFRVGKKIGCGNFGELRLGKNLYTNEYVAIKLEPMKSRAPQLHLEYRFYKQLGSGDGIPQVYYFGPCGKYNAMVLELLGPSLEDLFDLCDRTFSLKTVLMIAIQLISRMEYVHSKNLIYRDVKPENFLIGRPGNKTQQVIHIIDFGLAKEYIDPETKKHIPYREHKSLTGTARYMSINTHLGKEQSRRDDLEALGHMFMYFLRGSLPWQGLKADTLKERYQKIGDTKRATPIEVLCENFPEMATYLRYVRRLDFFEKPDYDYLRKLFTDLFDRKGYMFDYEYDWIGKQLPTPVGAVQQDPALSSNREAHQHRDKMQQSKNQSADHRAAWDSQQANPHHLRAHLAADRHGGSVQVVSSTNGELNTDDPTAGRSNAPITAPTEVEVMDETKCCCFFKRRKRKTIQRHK

Cc1nc(C2CCN(C(=O)c3ccc(OC(F)(F)F)cc3N)CC2)c2ncc(N3CCN(C)CC3)cc2n1 [BAY-693]
inactive: inhibition [1] 5.29%

CN1CCN(c2cnc3c(C4CCN(C(=O)c5ccc(OC(F)(F)F)cc5N)CC4)ncnc3c2)CC1 [BAY-885]
inactive: % residual kinase activity [2] 96% | % residual kinase activity [3] 99% | % residual kinase activity [4] 121% | % residual kinase activity [5] 109% | % residual kinase activity [6] 103% | % residual kinase activity [7] 114% | % residual kinase activity [8] 95% | % residual kinase activity [9] 107% | % residual kinase activity [10] 122% | % residual kinase activity [11] 114% | % residual kinase activity [12] 111% | % residual kinase activity [13] 100%
